One assay has as its target Human Cot (Homo sapiens (Human), UniProt P41279). Kind of assay: High Throughput Cot Biochemical Assay.
The next assay deals with TNFα. Kind of assay: Cot Monocyte TNFα Cell Based Assay.
Where [1] appears, read: IC50 HTRF, Cot HTRF (TR-FRET) biochemical assay.
Setting [2] is: Homo sapiens, Monocyte, read-out: EC50 TNF, LPS-stimulated human monocytes, TNFα.
Setting [3] is: read-out: IC50 HTRF, Cot HTRF (TR-FRET) biochemical assay.
Setting [4] is: read-out: EC50 TNF, LPS-stimulated human monocytes, TNFα.

The structures appear in SMILES notation. pEC50, pIC50: −log10 of the molar value. Where two headings read alike, the source gives them in different places.

In general, pIC50 refers to the IC50 on a negative log10 scale, so that one unit is a factor of ten. As a reminder, the pEC50 is the negative decadic logarithm of the EC50, by convention in mol/L.

Sequence of Human Cot (P41279 30-397): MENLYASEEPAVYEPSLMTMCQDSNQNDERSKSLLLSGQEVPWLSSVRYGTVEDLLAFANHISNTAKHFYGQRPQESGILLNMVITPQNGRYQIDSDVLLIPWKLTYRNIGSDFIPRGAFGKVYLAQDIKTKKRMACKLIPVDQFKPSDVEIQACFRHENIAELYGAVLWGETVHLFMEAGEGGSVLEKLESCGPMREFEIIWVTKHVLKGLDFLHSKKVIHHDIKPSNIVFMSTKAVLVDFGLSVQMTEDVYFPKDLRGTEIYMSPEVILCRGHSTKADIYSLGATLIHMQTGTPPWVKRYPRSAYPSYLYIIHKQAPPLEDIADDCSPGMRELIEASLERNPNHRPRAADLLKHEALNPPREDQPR

Turning to `N#Cc1cnc2c(Cl)cc(N[C@H](c3c[nH]nn3)c3csc4c3CCNC4)cc2c1Nc1ccc(F)c(Cl)c1` [Example 275, (S)-8-chloro-4-((3-chloro-4-fluorophenyl)amino)-6-(((4,5,6,7-tetrahydrothieno[2,3-c]pyridin-3-yl)(1H-1,2,3-triazol-4-yl)methyl)-amino)quinoline-3-carbonitrile], the negative-log IC50 (pIC50) at Human Cot (setting [1]) was 8.15. Also, the pEC50 in the assay on TNFα (setting [2]) was 5.63.

The molecule `N#Cc1cnc2c(Cl)cc(N[C@@H](c3cscn3)c3c[nH]nn3)cc2c1Nc1ccc(F)c(Cl)c1` [Example 276, (S)-8-chloro-4-((3-chloro-4-fluorophenyl)amino)-6-((thiazol-4-yl(1H-1,2,3-triazol-4-yl)methyl)amino)quinoline-3-carbonitrile] showed a pIC50 against Human Cot (setting [1]) of 8.22. For the same molecule, the pEC50 with TNFα (setting [2]) is 6.10.

Consider `N#Cc1cnc2c(Cl)cc(N[C@H](c3c[nH]nn3)c3cncs3)cc2c1Nc1ccc(F)c(Cl)c1` [Example 277, (R)-B-chloro-4-((3-chloro-4-fluorophenyl)amino)-6-((thiazol-5-yl(1H-1,2,3-triazol-4-yl)methyl)amino)quinoline-3-carbonitrile], for which the pIC50 at Human Cot (setting [3]) is 8.15. Besides, in the assay on TNFα (setting [4]), the pEC50 was 6.03.

At Human Cot, `CCN1CCc2c([C@H](Nc3cc(Cl)c4ncc(C#N)c(Nc5ccc(F)c(Cl)c5)c4c3)c3cn(C4COC4)nn3)csc2C1` [Example 278, (S)-8-chloro-4-((3-chloro-4-fluorophenyl)amino)-6-(((6-ethyl-4,5,6,7-tetrahydro-thieno[2,3-c]pyridin-3-yl)(1-(oxetan-3-yl)-1H-1,2,3-triazol-4-yl)methyl)amino)quinoline-3-carbonitrile] had a pIC50 of 8.52. The pEC50 in the assay with TNFα (Homo sapiens, Monocyte, read-out: EC50 TNF) was 6.57.

On Human Cot (setting [1]), `N#Cc1cnc2c(Cl)cc(N[C@H](c3cn(C4COC4)nn3)c3csc4c3CCNC4)cc2c1Nc1ccc(F)c(Cl)c1` [Example 279, (S)-8-chloro-4-((3-chloro-4-fluorophenyl)amino)-6-(((1-(oxetan-3-yl)-1H-1,2,3-triazol-4-yl)(4,5,6,7-tetrahydrothieno[2,3-c]pyridin-3-yl)methyl)amino)quinoline-3-carbonitrile] had a pIC50 of 8.52. In addition, the negative-log EC50 (pEC50) in the assay on TNFα (setting [2]) was 6.34.

`Cc1ncccc1[C@H](Nc1cc(Cl)c2ncc(C#N)c(Nc3ccc(F)c(Cl)c3)c2c1)c1cn(C2CCN(C(C)(C)C)CC2)nn1` [Example 283]: on Human Cot (setting [3]), the pIC50 is 8.52. For the same molecule, the pEC50 with TNFα (setting [4]) was 7.30.

On to `CC(C)(C)N1CCC(n2cc([C@@H](Nc3cc(Cl)c4ncc(C#N)c(Nc5ccc(F)c(F)c5)c4c3)c3cccnc3)nn2)CC1` [Example 285, (S)-6-(((1-(1-(tert-butyl)piperidin-4-yl)-1H-1,2,3-triazol-4-yl)(pyridin-3-yl)methyl)amino)-8-chloro-4-((3,4-difluorophenyl)amino)quinoline-3-carbonitrile], for which, at Human Cot (setting [1]), the pIC50 was 8.10. Besides, the pEC50 with TNFα (setting [2]) was 6.66.

Consider `CC(C)(C)N1CCC(n2cc([C@@H](Nc3cc(Cl)c4ncc(C#N)c(Nc5cccc(Cl)c5F)c4c3)c3cccnc3)nn2)CC1` [Example 286], for which the pIC50 on Human Cot (setting [3]) was 8.40. The pEC50 with TNFα (setting [4]) is 6.92.

Molecule `CC(C)(C)N1CCC(n2cc([C@@H](Nc3cc(Cl)c4ncc(C#N)c(NC5CCCCCC5)c4c3)c3cccnc3)nn2)CC1` [Example 288, (S)-6-(((1-(1-(tert-butyl)piperidin-4-yl)-1H-1,2,3-triazol-4-yl)(pyridin-3-yl)methyl)amino)-8-chloro-4-(cycloheptylamino)quinoline-3-carbonitrile] had a pIC50 against Human Cot (setting [1]) of 7.59. The pEC50 in the assay with TNFα (setting [2]) is 5.98.

Consider `Cc1nc(Cl)ccc1[C@H](Nc1cc(Cl)c2ncc(C#N)c(Nc3ccc(F)c(Cl)c3)c2c1)c1cn(C(C)C)nn1` [Example 294, (S)-8-chloro-6-(((6-chloro-2-methylpyridin-3-yl)(1-isopropyl-1H-1,2,3-triazol-4-yl)methyl)amino)-4-((3-chloro-4-fluorophenyl)amino)quinoline-3-carbonitrile], for which the pIC50 against Human Cot (setting [1]) was 8.05. In addition, in the assay on TNFα (setting [2]), the pEC50 was 6.78.

`CC(C)n1cc([C@@H](Nc2cc(Cl)c3ncc(C#N)c(Nc4ccc(F)c(Cl)c4)c3c2)c2cccnc2Cl)nn1` [Example 297, (S)-8-chloro-4-((3-chloro-4-fluoro-phenyl)amino)-6-(((2-chloropyridin-3-yl)(1-isopropyl-1H-1,2,3-triazol-4-yl)methyl)amino)quinoline-3-carbonitrile] had a negative logarithm of the IC50 (pIC50) against Human Cot (setting [1]) of 8.05. For the same molecule, the pEC50 in the assay on TNFα (setting [2]) was 6.70.

In the case of `CC(C)n1cc([C@@H](Nc2cc(Cl)c3ncc(C#N)c(Nc4ccc(F)c(Cl)c4)c3c2)c2cnco2)nn1` [Example 298, (R)-8-chloro-4-((3-chloro-4-fluoro-phenyl)amino)-6-(((1-isopropyl-1H-1,2,3-triazol-4-yl)(oxazol-5-yl)methyl)-amino)quinoline-3-carbonitrile], the pIC50 on Human Cot (setting [1]) is 7.41. In addition, in the assay with TNFα (setting [2]), the pEC50 is 5.82.

In turn, `CC(C)(C)N1CCC(n2cc([C@@H](Nc3cc(Cl)c4ncc(C#N)c(Nc5ccc(F)c(Cl)c5)c4c3)c3cnco3)nn2)CC1` [Example 299, (R)-6-(((1-(1-(tert-butyl)piperidin-4-yl)-1H-1,2,3-triazol-4-yl)(oxazol-5-yl)methyl)amino)-8-chloro-4-((3-chloro-4-fluorophenyl)amino)quinoline-3-carbonitrile] gave a pIC50 against Human Cot (setting [1]) of 7.74. For the same molecule, in the assay on TNFα (setting [2]), the pEC50 was 6.13.

Take `CC(C)(C)N1CCC(n2cc([C@@H](Nc3cc(Cl)c4ncc(C#N)c(Nc5ccc(F)c(Cl)c5)c4c3)c3csc(N4CCOCC4)n3)nn2)CC1` [Example 300]: at Human Cot (setting [3]), the pIC50 is 8.15. Besides, in the assay with TNFα (setting [4]), the pEC50 was 6.78.

On Human Cot (setting [1]), `N#Cc1cnc2c(Cl)cc(N[C@H](c3cn(C4COC4)nn3)c3csc(N4CCOCC4)n3)cc2c1Nc1ccc(F)c(Cl)c1` [Example 302, (S)-8-chloro-4-((3-chloro-4-fluoro-phenyl)amino)-6-(((2-morpholinothiazol-4-yl)(1-(oxetan-3-yl)-1H-1,2,3-triazol-4-yl)methyl)amino)quinoline-3-carbonitrile] gave a pIC50 of 8.00. The pEC50 with TNFα (setting [2]) was 6.33.

`CC(C)n1cc([C@@H](Nc2cc(Cl)c3ncc(C#N)c(Nc4ccc(F)c(Cl)c4)c3c2)c2ccnn2C)nn1` [Example 304, (S)-8-chloro-4-((3-chloro-4-fluorophenyl)amino)-6-(((1-isopropyl-1H-1,2,3-triazol-4-yl)(1-methyl-1H-pyrazol-5-yl)methyl)amino)quinoline-3-carbonitrile]: at Human Cot (setting [1]), the pIC50 is 8.22. The pEC50 in the assay on TNFα (setting [2]) is 6.63.

Consider `Cn1nccc1[C@H](Nc1cc(Cl)c2ncc(C#N)c(Nc3ccc(F)c(Cl)c3)c2c1)c1cn(C2CCN(C(C)(C)C)CC2)nn1` [Example 305, (S)-6-(((1-(1-(tert-butyl)piperidin-4-yl)-1H-1,2,3-triazol-4-yl)(1-methyl-1H-pyrazol-5-yl)methyl)amino)-8-chloro-4-((3-chloro-4-fluorophenyl)amino)quinoline-3-carbonitrile], for which the pIC50 on Human Cot (setting [1]) was 8.52. In addition, the pEC50 with TNFα (setting [2]) was 7.08.

`Cc1ncsc1[C@H](Nc1cc(Cl)c2ncc(C#N)c(Nc3ccc(F)c(Cl)c3)c2c1)c1cn(C(C)C)nn1` [Example 306, (R)-8-chloro-4-((3-chloro-4-fluorophenyl)amino)-6-(((1-isopropyl-1H-1,2,3-triazol-4-yl)(4-methylthiazol-5-yl)methyl)amino)quinoline-3-carbonitrile] gave a pIC50 on Human Cot (setting [1]) of 8.22. For the same molecule, the pEC50 with TNFα (setting [2]) is 6.69.

Turning to `Cc1ncsc1[C@H](Nc1cc(Cl)c2ncc(C#N)c(Nc3ccc(F)c(Cl)c3)c2c1)c1cn(C2CCN(C(C)(C)C)CC2)nn1` [Example 307, (R)-6-(((1-(1-(tert-butyl)piperidin-4-yl)-1H-1,2,3-triazol-4-yl)(4-methylthiazol-5-yl)methyl)amino)-8-chloro-4-((3-chloro-4-fluorophenyl)amino)quinoline-3-carbonitrile], the pIC50 on Human Cot (setting [1]) was 8.40. Further, the pEC50 in the assay on TNFα (setting [2]) is 7.22.

With `N#Cc1cnc2c(Cl)cc(N[C@@H](c3cccnc3)c3c[nH]nn3)cc2c1Nc1ccc(F)c(Cl)c1` [Example 308, (S)-8-chloro-4-((3-chloro-4-fluorophenyl)amino)-6-((pyridin-3-yl(1H-1,2,3-triazol-4-yl)methyl)amino)-quinoline-3-carbonitrile], the pIC50 at Human Cot (setting [1]) is 8.40. For the same molecule, the pEC50 in the assay on TNFα (setting [2]) is 6.54.

As to `CC1(C)CC(n2cc([C@@H](Nc3cc(Cl)c4ncc(C#N)c(Nc5ccc(F)c(Cl)c5)c4c3)c3cccnc3)nn2)CC(C)(C)N1` [Example 309], the pIC50 on Human Cot (setting [3]) is 8.10. Further, the pEC50 in the assay with TNFα (setting [4]) was 6.74.

Regarding `CC(C)(C)n1cc([C@@H](Nc2cc(Cl)c3ncc(C#N)c(Nc4ccc(F)c(Cl)c4)c3c2)c2cocn2)nn1` [Example 310, (S)-6-(((1-(tert-butyl)-1H-1,2,3-triazol-4-yl)(oxazol-4-yl)methyl)amino)-8-chloro-4-((3-chloro-4-fluorophenyl)amino)-quinoline-3-carbonitrile], the pIC50 against Human Cot (setting [1]) is 7.40. In addition, the pEC50 in the assay with TNFα (setting [2]) is 5.63.

On to `CC(C)(C)N1CCC(n2cc([C@@H](Nc3cc(Cl)c4ncc(C#N)c(Nc5ccc(F)c(Cl)c5)c4c3)c3cccnc3Cl)nn2)CC1` [Example 315, (S)-6-(((1-(1-(tert-butyl)piperidin-4-yl)-1H-1,2,3-triazol-4-yl)(2-chloropyridin-3-yl)methyl)arnino)-8-chloro-4-((3-chloro-4-fluorophenyl)amino)quinoline-3-carbonitrile], for which, at Human Cot (setting [3]), the pIC50 is 8.40. Further, the pEC50 in the assay with TNFα (setting [4]) is 6.88.

`N#Cc1cnc2c(Cl)cc(N[C@@H](c3cscn3)c3cn(Cc4ccccn4)nn3)cc2c1Nc1ccc(F)c(Cl)c1` [Example 316, (S)-8-chloro-4-((3-chloro-4-fluorophenyl)amino)-6-(((1-(pyridin-2-ylmethyl)-1H-1,2,3-triazol-4-yl)(thiazol-4-yl)methyl)amino)quinoline-3-carbonitrile] had a pIC50 against Human Cot (setting [1]) of 8.22. Moreover, the pEC50 with TNFα (setting [2]) was 6.53.

For the origin of these results see US11066414B2, “Cot modulators and methods of use thereof” (Gilead Sciences, Inc., priority 2015, dated 2021).
